The source of these data is patent publication US20220226313A1, “COMBINATION THERAPIES THAT INCLUDE AN AGENT THAT PROMOTES GLUCOSE OXIDATION AND AN INHIBITOR OF PYRUVATE DEHYDROGENASE KINASE” (IMBRIA PHARMACEUTICALS, INC., priority 2019, published 2022).

“And” between values parts separate entries of the source, which are not always exact repeats. Identical values can stand only once.

Data set [1] can be described thus: stability of CV-8972 in aqueous solution at different concentrations and pH. In kind it is physicochemical. As for the experimental part: The stability of CV-8972 was analyzed. Aqueous samples containing CV-8972 at different concentrations and pH were incubated for various periods and analyzed.
Form A of CV-8972 was analyzed for stability in aqueous solution. Aqueous samples containing CV-8972 at different concentrations and pH were incubated for various periods and analyzed.

The nature of data set [2]: recrystallization to monohydrate of CV-8972, water content by KF. In kind it is physicochemical. As to conditions: recrystallized monohydrate of CV-8972, MeOH:MEK with water; theoretical 3.32%. An excerpt: The product was converted to the desired polymorph by recrystallization. The percentage of water and the ratio of methanol:methyl ethyl ketone (MEK) were varied in different batches using 2.5 g of product.
In batch MBA 25, 5% water w/r/t total volume of solvent (23 volumes) containing 30% methano1:70% MEK was used for precipitation. The yield was 67% of monohydrate of CV-8972.
In batch MBA 26, 1.33% water w/r/t total volume of solvent (30 volumes) containing 20% methano1:80% MEK was used for precipitation. […] Water content was determined by KF to be 4.0%.
In batch MBA 27, 3% water w/r/t total volume of solvent (32 volumes) containing 22% methano1:78% MEK was used for precipitation. The yield was 87.22% of monohydrate of CV-8972.
In other batches, the ratio and total volume of solvent were held constant at 20% methano1:80% MEK and 30 volumes in batches using 2.5 g of product, and only the percentage of water was varied.
In batch MBA 29, 1.0 equivalent of water was added. Material was isolated and dried under vacuum at 40° C. for 24 hours. Water content was determined by KF to be 0.89%, showing that the monohydrate form was not forming stoichiometrically.
In batch MBA 30, 3% water was added. Material was isolated and dried under vacuum at 40° C. for 24 hours.
In batch MBA 31, 5% water was added. Material was isolated and dried under vacuum at 40° C. for 24 hours. Water content was determined by KF to be 3.30%, showing that monohydrate is forming with addition of excess water.

In data set [3] the test system is isolated hearts after ischemia-reperfusion. Briefly: ischemia-reperfusion (IR), cardiac function (LVDP). The note with it: group mean. In kind it is in vivo, mice.
Procedure: At 20 minutes, ischemia was induced, and coronary flow was analyzed. At 50 minutes, reperfusion was initiated to restore blood flow. At 170 minutes, coronary flow and cardiac function was analyzed, and then the hearts were preserved, sectioned, and infarct size was measured by triphenyltetrazolium chloride (TTC) staining. […] Blue bars indicate LVDP at 20 minutes, and orange bars indicate LVDP at 170 minutes.
The test system is the same in data set [4]. Briefly: ischemia-reperfusion (IR), coronary flow. The note with it: ratio of flow at 170 minutes to flow at 20 minutes. The class given is in vivo, mice. The method, then:
FIG. 38 is a schematic of the ischemia-reperfusion (IR) method used to analyze the effects of selected compositions on coronary flow, cardiac function, and infarct size. […] At 20 minutes, ischemia was induced, and coronary flow was analyzed. At 50 minutes, reperfusion was initiated to restore blood flow. At 170 minutes, coronary flow and cardiac function was analyzed, and then the hearts were preserved, sectioned, and infarct size was measured by triphenyltetrazolium chloride (TTC) staining. FIG. 39 is a graph of coronary flow of after IR.

Data set [5] has the same test system. As to the kind of experiment: ischemia-reperfusion (IR), infarct size by TTC staining. As to conditions: composite image data, mean of the group's hearts. The class given is in vivo, mice. The method, then:
FIG. 38 is a schematic of the ischemia-reperfusion (IR) method used to analyze the effects of selected compositions on coronary flow, cardiac function, and infarct size. […] At 20 minutes, ischemia was induced, and coronary flow was analyzed. At 50 minutes, reperfusion was initiated to restore blood flow. At 170 minutes, coronary flow and cardiac function was analyzed, and then the hearts were preserved, sectioned, and infarct size was measured by triphenyltetrazolium chloride (TTC) staining. […] FIG. 42 is graph of infarct size after IR.

With `COc1ccc(CN2CCN(CCOC(=O)c3cccnc3)CC2)c(OC)c1OC.Cl.Cl.Cl.O` [Sample 276-MBA-172], the “Retention Time 5.6 (purity of CV-8972)” value in data set [1] (2 mg/mL pH 6, 0 hrs) amounted to 98.01; in data set [1] (2 mg/mL pH 7, 0 hrs), 97.53; in data set [1] (10 mg/mL pH 6, 0 hrs) it was 95.24; in data set [1] (10 mg/mL pH 7, 0 hrs), 92.85.
With `COc1ccc(CN2CCN(CCOC(=O)c3cccnc3)CC2)c(OC)c1OC.Cl.Cl.Cl.O` [Sample 289-MBA-25], the “KF result (% of water)” value in data set [2] is recorded as 3.46%.
Take `COc1ccc(CN2CCN(CCOC(=O)c3cccnc3)CC2)c(OC)c1OC.Cl.Cl.Cl.O` [Sample 289-MBA-26]: in data set [2], the “KF result (% of water)” value worked out at 4.00% and the “KF result (Sample after drying at 40° C. for 24 hours)” value came to 3.75%.
Taken in the same sequence, the figures for `COc1ccc(CN2CCN(CCOC(=O)c3cccnc3)CC2)c(OC)c1OC.Cl.Cl.Cl.O` [Sample 289-MBA-27] were 3.93% and 3.54%.
As for `COc1ccc(CN2CCN(CCOC(=O)c3cccnc3)CC2)c(OC)c1OC.Cl.Cl.Cl.O` [Sample 289-MBA-29], the “KF result (Sample after drying at 40° C. for 24 hours)” value in data set [2] is given as 0.89%.
For the molecule `COc1ccc(CN2CCN(CCOC(=O)c3cccnc3)CC2)c(OC)c1OC.Cl.Cl.Cl.O` [Sample 289-MBA-30], in data set [2], the “KF result (Sample after drying at 40° C. for 24 hours)” value turned out to be 3.51%.
`COc1ccc(CN2CCN(CCOC(=O)c3cccnc3)CC2)c(OC)c1OC.Cl.Cl.Cl.O` [Sample 289-MBA-31]: the “KF result (Sample after drying at 40° C. for 24 hours)” value in data set [2] came out at 3.30%.
With `COc1ccc(CN2CCNCC2)c(OC)c1OC` [TMZ, trimetazidine], the “left ventricular developed pressure (LVDP), T20 Mean” value in data set [3] (Table 6, at 20 minutes) is 55.86. Also, in data set [3] (Table 6, at 170 minutes), the “left ventricular developed pressure (LVDP), T170 Mean” value was 48.91. Further, the CF170/CF20 is 4.02E+01 ul/ml in data set [4] (group MEAN); 2.42E+01 ul/ml and 5.87E+01 ul/ml and 3.57E+01 ul/ml and 3.37E+01 ul/ml and 5.21E+01 ul/ml and 2.73E+01 ul/ml and 2.60E+01 ul/ml and 6.39E+01 ul/ml in data set [4] (individual heart). Moreover, the “IS/LV, Mean” value in data set [5] amounted to 56%.
